The values below come from paper PMC6013247, “Preclinical characterization of INCB053914, a novel pan-PIM kinase inhibitor, alone and in combination with anticancer agents, in models of hematologic malignancies” (PLoS ONE, 2018).

Molecules are shown by their SMILES.

One assay concerns INA-6 cells. Kind of assay: STAT3(Y705) and PIM kinase substrate phosphorylation in INA-6 cells in culture. The class given is cell-based. Particulars: INA-6 cells treated for 24 hours in culture. The procedure: Fig S1. Effects of INCB053914 on STAT3(Y705) and PIM kinase substrate phosphorylation in INA-6 cells treated for 24 hours in culture.
In another assay the test system is Pfeiffer DLBCL cells. Kind of assay: In vitro proliferation of Pfeiffer DLBCL cells, single agents and combination. The assay is classed as cell-based. The procedure:
Synergistic effects of INCB053914 in combination with INCB050465, cytarabine, or itacitinib, were assessed based on the Bliss independence model. In this model, the expected additive effect, with the assumption that concentration dependent effects of 2 drugs (A and B) are independent, is given by the equation EIND = EA + EB – EA •EB, where 0 ≤ EIND ≤ 1; EA and EB are the magnitudes of effects of A and B alone at given concentrations.
The interaction between effects of A and B can be described by the equation Combination Index = EIND/ EOBS, where EOBS is the observed combined effect of A + B expressed as a probability (0 ≤ EOBS ≤ 1). If the point estimate of Combination Index and its upper 97.5% confidence limit are <1 then the combined effect is synergistic; if the 2-sided 95% confidence intervals (CI) encompass 1 then the combined effect is additive (ie, independent); if the point estimate of Combination Index and the lower 2.5% confidence limit are >1 then the combined effect of A + B are antagonistic.

Assay [1] has as its system PIM isozyme expression in Pfeiffer DLBCL cells. Kind of assay: PIM isozyme expression in Pfeiffer DLBCL cells. The assay is classed as cell-based.
The test system of assay [2] is pBAD, pSTAT3 and MYC in INA-6 (MM) tumors. Kind of assay: pBAD, pSTAT3 and MYC levels in INA-6 (MM) tumors. Particulars: INA-6 (MM) tumors in mice. The class given is in vivo, mouse. As to the method: The PI3Kδ inhibitor INCB050465 (10 mg/kg once a day orally) was evaluated in combination with INCB053914 (30 mg/kg once a day orally) in mice bearing Pfeiffer (DLBCL) xenografts, a model sensitive to PI3Kδ inhibition (eight mice/group). Cytarabine was administered via intraperitoneal injection at a standard dose of 20 mg/kg twice a week, in combination with oral INCB053914 at a submaximally efficacious dose of 20 mg/kg twice a day for 12 days in mice bearing human KG-1 AML xenografts, a cytarabine-sensitive model (eight mice/group). The oral JAK1-selective inhibitor itacitinib (60 mg/kg twice a day orally) was assessed in combination with INCB053914 (100 mg/kg twice a day orally) after 8 days of administration to SCID mice bearing INA-6 (MM) xenografts (eight mice/group), a model sensitive to JAK inhibition.

In assay [3] the test system is human KG-1 AML xenografts. Kind of assay: Tumor growth in KG-1 (AML) xenograft, combination with cytarabine. The class given is in vivo, mouse. As to conditions: KG-1 (AML) tumors.
Protocol: Female immune compromised (severe combined immunodeficiency [SCID]) mice (5–9 weeks of age; Charles River Laboratories, Wilmington, Massachusetts) were inoculated with MOLM-16, KG-1, or KMS-12-BM cells. A cell suspension in Dulbecco’s phosphate-buffered saline (DPBS) (1 × 10^8 cells/ml) was mixed 1:1 (v/v) with matrigel, and 200 μl was injected subcutaneously into the flank of each mouse. […] The treatment of tumor-bearing mice started 7 to 24 days after tumor inoculation for efficacy studies and approximately 14 to 27 days after tumor inoculation for pharmacodynamic studies.
Synergistic effects of INCB053914 in combination with INCB050465, cytarabine, or itacitinib, were assessed based on the Bliss independence model [56, 57]. In this model, the expected additive effect, with the assumption that concentration dependent effects of 2 drugs (A and B) are independent, is given by the equation EIND = EA + EB – EA •EB, where 0 ≤ EIND ≤ 1; EA and EB are the magnitudes of effects of A and B alone at given concentrations.
The interaction between effects of A and B can be described by the equation Combination Index = EIND/ EOBS, where EOBS is the observed combined effect of A + B expressed as a probability (0 ≤ EOBS ≤ 1). […]

Consider `N#CC[C@H](C1CCCC1)n1cc(-c2ncnc3[nH]ccc23)cn1` [ruxolitinib], for which the “PIM kinase substrate phosphorylation” value in the assay on INA-6 cells was “unaffected”.

As to `CCOc1c([C@H](C)n2nc(C)c3c(N)ncnc32)cc(Cl)c(F)c1[C@@H]1CNC(=O)C1` [INCB050465], the “proliferation of Pfeiffer cells, single agent” value in the assay with Pfeiffer DLBCL cells is given as “inhibited”. For the same molecule, in assay [1], the “expression of all three PIM isozymes relative to baseline” value is given as “concentration-dependent increases” and the “increase in PIM2 expression relative to baseline” value is reported as ~ 2.5 fold.

Consider `N#CCC1(n2cc(-c3ncnc4[nH]ccc34)cn2)CN(C2CCN(C(=O)c3ccnc(C(F)(F)F)c3F)CC2)C1` [itacitinib, reference compound], for which the “PIM kinase substrate phosphorylation” value with INA-6 cells is reported as “unaffected”. In assay [2], the MYC levels result is on record as “decreased MYC levels” and the “level of pSTAT3” value is reported as “decrease”.

As to `Nc1ccn([C@@H]2O[C@H](CO)[C@@H](O)[C@@H]2O)c(=O)n1` [cytarabine, Cytarabine, reference compound], the “tumor growth, single agent” value in assay [3] is “inhibited”.
